In US20040038950A1, “Pharmaceutical composition for treating IL-1 related diseases or disorders” (priority 2002, published 2004):

Key:
type I collagen mRNA = assay: RT-PCR of type I collagen mRNA in chondrocytes; format: cell-based, human; details: 100 μM
Protocol: (§1) Chondrocytes were isolated from the knee joint of patient undergoing a knee replacement due to osteoarthritis. Cartilage was digested with 0.2% protease Type XIV (Sigma) for 1 hour, followed by 3-hour incubation with 0.2% collagenase Type IA (Sigma) at 37° C. Following the incubation, the undigested cartilage fragments were removed using a 70 μm Nylon sieve. Chondrocytes were washed with DPBS and maintained in monolayer culture for 7 days in Dulbecco's modified Eagle's medium (DMEM; Life Technologies Inc.) which contained 10% fetal bovine serum (FBS; Life Technologies), 100 units/ml penicillin-streptomycin (Life Technologies) and 25 μg/ml L-ascorbic acid (Sigma). All experiments were performed with primary or first passage cells. The preparation of chondrocytes in alginate beads was carried out with 4×10^6 cells per 1 ml of alginate. Alginate cultures were maintained for 7 days at 37° C., 5% CO2 and 95% humidity and incubated with various concentrations of DHEA (0, 10, 50 or 100 μM) for a varing period of time. DHEA was purchased from Sigma and used after dissolving either in ethanol or dimethyl sulfoxide (DMSO). After a desired incubation period, cells were harvested by solubilizing the alginate beads in citrate buffer (55 mM sodium citrate, 0.15 M NaCl, pH 7.0) for 10 min at 37° C. and by centrifugation (300 g, 5 min).
(§2) Total RNA from chondrocytes was extracted using RNeasy Mini Kit (QIAGEN). Reverse transcription from 1 μg of total RNA was conducted using First Strand cDNA Synthesis Kit (MBI Fermentas) according to manufacturer's recommendation with random hexamers. […] All reactions were determined to be in the linear range of amplification with the cycle number ranging from 14 to 30. The PCR products were analyzed by separation on a 2% agarose gel followed by ethidium bromide staining. Following electrophoresis, photographs were taken and analyzed using a densitometric program (TINA; Raytest Isotopenmeβgerate, Germany). […] After normalizing with respect to GAPDH, percentage increase or decrease was determined. […]

[1] = system: (IL-1β)-induced iNOS mRNA; assay: (IL-1β)-induced iNOS gene expression in chondrocytes; format: cell-based, human; details: 10, 50, 100 μM with IL-1β, 72 hr
Protocol: Sixteen hours prior to a treatment, the complete culture medium was replaced with a serum-free medium. Chondrocyte alginate bead cultures were then treated with IL-1β ([…], (Calbiochem) and DHEA (0, 10, 50 or 100 μM) for 3 days.
Total RNA from chondrocytes was extracted using RNeasy Mini Kit (QIAGEN). Reverse transcription from 1 μg of total RNA was conducted using First Strand cDNA Synthesis Kit (MBI Fermentas) according to manufacturer's recommendation with random hexamers. The resulting cDNA was then amplified by polymerase chain reaction using AccuPower PCR Premix (Bioneer, Korea) in a final volume of 20 μl using three thermocycler temperatures (30 sec at […], 30 sec at 60° C., and 30 sec at […]). All reactions were determined to be in the linear range of amplification with the cycle number ranging from 14 to 30. The PCR products were analyzed by separation on a 2% agarose gel followed by ethidium bromide staining. Following electrophoresis, photographs were taken and analyzed using a densitometric program (TINA; Raytest Isotopenmeβgerate, Germany). Integrated density values for the genes in question were then normalized to the glyceraldehyde-3-phosphate dehydrogenase (GAPDH) values for a semiquantitative assessment. After normalizing with respect to GAPDH, percentage increase or decrease was determined. Each experiment was repeated at least three times. […]

human chondrocyte [2] = assay: Cell proliferation, [3H]thymidine assay in chondrocyte alginate bead culture; format: cell-based; details: 10-100 μM DHEA
Protocol: (§3) Chondrocytes were isolated from the knee joint of patient undergoing a knee replacement due to osteoarthritis. Cartilage was digested with 0.2% protease Type XIV (Sigma) for 1 hour, followed by 3-hour incubation with 0.2% collagenase Type IA (Sigma) at 37° C. Following the incubation, the undigested cartilage fragments were removed using a 70 μm Nylon sieve. Chondrocytes were washed with DPBS and maintained in monolayer culture for 7 days in Dulbecco's modified Eagle's medium (DMEM; Life Technologies Inc.) which contained 10% fetal bovine serum (FBS; Life Technologies), 100 units/ml penicillin-streptomycin (Life Technologies) and 25 μg/ml L-ascorbic acid (Sigma). All experiments were performed with primary or first passage cells. The preparation of chondrocytes in alginate beads was carried out with 4×10^6 cells per 1 ml of alginate. […]
(§4) For cell proliferation, [^3H]thymidine assay was performed on a 96-well plate (Nunc) with one alginate bead per well. […] After collecting the cells using a cell harvester (Wallac), [^3H]thymidine uptake was quantitated by measuring β emission on a β-counter (Wallac). […] The ^35SO4-labeled proteoglycan content was measured by a liquid scintillation counter (Wallac). The total cellular DNA was determined by Indole assay.

MMP-3 = assay: Western blot of MMP-3 in chondrocyte lysates; format: cell-based, human; details: 0, 10 or 100 μ DHEA, three days
Protocol: as §1, with “After a desired incubation period, cells were harvested by solubilizing the alginate beads in citrate buffer (55 mM sodium citrate, 0.15 M NaCl, pH 7.0) for 10 min at 37° C. and by centrifugation (300 g, 5 min).” left out
(§5) To investigate the effect of DHEA on the protein concentration, Western blot analysis was performed. […] Protein concentration of the supernatant was determined by Bio-Rad protein assay (Bio-Rad, USA) using bovine serum albumin (BSA) as a standard. […]

human chondrocyte [3] = assay: GAG assay (35SO4-labeled proteoglycan synthesis) in chondrocyte alginate culture; format: cell-based; details: DHEA present in chondrocyte cultures, same time period
Protocol: as §3, §4

TIMP-1 = assay: Western blot of TIMP-1 in chondrocyte lysates; format: cell-based, human; details: 0, 10 or 100 μ DHEA, three days
Protocol: as §1, with “After a desired incubation period, cells were harvested by solubilizing the alginate beads in citrate buffer (55 mM sodium citrate, 0.15 M NaCl, pH 7.0) for 10 min at 37° C. and by centrifugation (300 g, 5 min).” left out
as §5

type II collagen mRNA = assay: RT-PCR of type II collagen mRNA in chondrocytes; format: cell-based, human; details: for type II collagen gene up-regulation, enhancement: 72 hours
Protocol: as §1, §2

TIMP-1 mRNA = assay: Osteoarthritic rabbit model (ACLT), intraarticular injection, RT-PCR of TIMP-1; format: in vivo; details: rabbit ACLT knee, intraarticular once a week for 5 weeks
Protocol: Mature New Zealand White rabbits underwent bilateral anterior cruciate ligament transection (ACLT). ACLT was performed using a medial arthrotomy method. Postoperatively the animals were permitted cage (60 cm×60 cm×40 cm) activity without immobilization. The right knees received via intraartiticular injection DHEA, DHEA-pyruvate or DHEA+HA, 4 weeks after ACLT and once a week for 5 weeks. The left knees received 0.3 ml of intraarticular injection with control solution (carrier solution). After 9 weeks from ACLT, the animas were sacrificed.
Synovium (entire tissue) around the infrapatellar fat pads and cartilage tissue from the femoral condyle and the tibial plateau were harvested. The subsequent experimental procedure was the same as described in Test Example IV.

C[C@]12CC[C@H](O)CC1=CC[C@@H]1[C@@H]2CC[C@]2(C)C(=O)CC[C@@H]12 [DHEA, dehyroepiandrosterone]
type I collagen mRNA, maximal inhibition (type I collagen mRNA; 72 hours): 28%
type I collagen production, reduced by (type I collagen mRNA; after 24-72 hr of culture): less than 50%
type I collagen mRNA expression (type I collagen mRNA; after 72 hr): markly inhibited
(IL-1β)-induced up-regulation of iNOS mRNA [1]: suppressed
effect on cell proliferation (human chondrocyte [2]; after day 5): insignificant
cell proliferation (human chondrocyte [2]; as early as day 3 of culture): slightly reduced
MMP-3 protein level (Western blot) (MMP-3): did not change
rate of proteoglycan synthesis (human chondrocyte [3]): remained unchanged
translational level of mature TIMP-1 (Western blot) (TIMP-1): increased with increasing concentration of DHEA
type II collagen gene up-regulation, enhancement (type II collagen mRNA; 50 μM): 132%
type II collagen gene up-regulation, enhancement (type II collagen mRNA; 100 μM): 146%
Emax at 100 µM (type II collagen mRNA; Homo sapiens, Chondrocyte, 100 μM, after 48 hr, read-out: type II collagen mRNA level, maximal stimulation): 276%
expression of TIMP-1 (TIMP-1 mRNA): increased
